Patent US7118895B2, “Process for producing aglycon by using diglycosidase and flavor-improved food containing the aglycon and converting agent to be used in the process” (Amano Enzyme Inc., priority 2000, dated 2006)

Columns and labels:
Crude diglycosidase = assay: Examination of temperature in the conversion into isoflavone aglycons by diglycosidase using soybean materials; assay type: biochemical, Penicillium multicolor IAM7153; parameters: Decomposition efficiency of glycitin family in roasted soy flour / Decomposition efficiency of daidzin family in roasted soy flour / Decomposition efficiency of genistin family in soymilk / Decomposition efficiency of daidzin family in soymilk / Decomposition efficiency of glycitin family in defatted soybean / Decomposition efficiency of daidzin family in defatted soybean: concentration or dose not given beside the values
Method in brief: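 Temperature series (30-80° C.) of crude diglycosidase, diluted to 1.88 AU/mL in 20 mM acetate pH 4.0, acting on roasted soy flour, soymilk, defatted soybean or soy protein concentrate. Samples quenched with ethanol after 0-6 h, centrifuged, filtered and analyzed by HPLC for glycosides versus aglycons.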

[1] = test system: Diglycosidase derived from P. multicolor; assay: Reactivity toward various isoflavone glycosides (HPLC); assay type: biochemical, Penicillium multicolor; parameters: glucoside / aglycon: unit not given here; details: 55 °C, pH 4.0
Description: Diglycosidase was diluted with an acetate buffer of pH 4.0 to prepare a 0.75 AU/mL enzyme solution. As references, a similar operation was conducted using β-glucosidase (manufactured by Fluka) derived from Aspergillus niger, β-glucosidase (manufactured by Sigma) derived from almond, β-xylosidase derived from pectinase G (manufactured by Amano Enzyme Inc.). Each of purified products of isoflavone glycosides (glycitin, acetylglycitin, malonylglycitin, daidzin, acetyldaidzin, malonyldaidzin, genistin, acetylgenistin, malonylgenistin, all manufactured by Nacalai Tesque, Inc.) was dissolved in methanol to prepare each 2 mM substrate solution. The reaction was carried out by mixing 10 μL of a substrate solution, 200 μL of 20 mM acetate buffer (pH 4.0), and 40 μL of each purified enzyme solution at a total liquid volume of 250 μL. The reaction was carried out at 55° C. and isolation of an aglycon isoflavone from an isoflavone glycoside in the reaction mixture was detected by HLPC at 0, 1, 3, and 6 hours of the reaction.
To the reaction mixture was added 700 μL of ethanol, followed by stirring and ultrasonication. After centrifugation at 15,000 rpm and 4° C. for 10 minutes, the supernatant was filtered through a filter and then the filtrate was applied to HPLC.
The isoflavone glycoside and aglycon isoflavone contained in the filtrate was separated and detected by a high performance liquid chromatography (HPLC, Shimadzu CLASS LC-10 system) using TOSOH TSK gel ODS-80TM column (manufactured by Tosoh Corporation). […] The absorbance at 260 nm was detected by a UV detector (Shimadzu, SPD-10AV). Using purified products (manufactured by Nacalai Tesque, Inc.) of the above isoflavone glycosides and aglycon isoflavones, the isoflavone glycoside and aglycon isoflavone were quantitatively determined according to a calibration curve method. By the way, unless otherwise stated, the measuring conditions of HPLC herein mean those described in the example.

[2] = 30 °C, heat treatment of enzyme: no, 0 h
[3] = 30 °C, heat treatment of enzyme: no, 1 h
[4] = 30 °C, heat treatment of enzyme: no, 3 h
[5] = 30 °C, heat treatment of enzyme: no, 6 h
[6] = 30 °C, heat treatment of enzyme: yes, 6 h
[7] = 45 °C, heat treatment of enzyme: no, 0 h
[8] = 45 °C, heat treatment of enzyme: no, 1 h
[9] = 45 °C, heat treatment of enzyme: no, 3 h
[10] = 45 °C, heat treatment of enzyme: no, 6 h
[11] = 45 °C, heat treatment of enzyme: yes, 6 h
[12] = 55 °C, heat treatment of enzyme: no, 0 h
[13] = 55 °C, heat treatment of enzyme: no, 1 h
[14] = 55 °C, heat treatment of enzyme: no, 3 h
[15] = 55 °C, heat treatment of enzyme: no, 6 h
[16] = 55 °C, heat treatment of enzyme: yes, 6 h
[17] = 65 °C, heat treatment of enzyme: no, 0 h
[18] = 65 °C, heat treatment of enzyme: no, 1 h
[19] = 65 °C, heat treatment of enzyme: no, 3 h
[20] = 65 °C, heat treatment of enzyme: no, 6 h
[21] = 65 °C, heat treatment of enzyme: yes, 6 h
[22] = 80 °C, heat treatment of enzyme: no, 0 h
[23] = 80 °C, heat treatment of enzyme: no, 1 h
[24] = 80 °C, heat treatment of enzyme: no, 3 h
[25] = 80 °C, heat treatment of enzyme: no, 6 h
[26] = 80 °C, heat treatment of enzyme: yes, 6 h

Decomposition efficiency of glycitin family in defatted soybean (Crude diglycosidase; 30° C., heat treatment of enzyme no, reaction time 0 h): not detected | Decomposition efficiency of glycitin family in defatted soybean (Crude diglycosidase; 30° C., heat treatment of enzyme no, reaction time 1 h): not detected | Decomposition efficiency of glycitin family in defatted soybean (Crude diglycosidase; 30° C., heat treatment of enzyme no, reaction time 3 h): not detected | Decomposition efficiency of glycitin family in defatted soybean (Crude diglycosidase; 30° C., heat treatment of enzyme no, reaction time 6 h): not detected | Decomposition efficiency of glycitin family in defatted soybean (Crude diglycosidase; 30° C., heat treatment of enzyme yes, reaction time 6 h): not detected | Decomposition efficiency of glycitin family in concentrated soybean protein (Crude diglycosidase; [2]): 36.0% | Decomposition efficiency of glycitin family in roasted soy flour (Crude diglycosidase; [2]): 38.7% | Decomposition efficiency of glycitin family in soymilk (Crude diglycosidase; [2]): not detected | Decomposition efficiency of glycitin family in concentrated soybean protein (Crude diglycosidase; [3]): 35.0% | Decomposition efficiency of glycitin family in roasted soy flour (Crude diglycosidase; [3]): 33.8% | Decomposition efficiency of glycitin family in soymilk (Crude diglycosidase; [3]): not detected | Decomposition efficiency of glycitin family in concentrated soybean protein (Crude diglycosidase; [4]): 33.4% | Decomposition efficiency of glycitin family in roasted soy flour (Crude diglycosidase; [4]): 33.2% | Decomposition efficiency of glycitin family in soymilk (Crude diglycosidase; [4]): not detected | Decomposition efficiency of glycitin family in concentrated soybean protein (Crude diglycosidase; [5]): 30.8% | Decomposition efficiency of glycitin family in roasted soy flour (Crude diglycosidase; [5]): 19.1% | Decomposition efficiency of glycitin family in soymilk (Crude diglycosidase; [5]): not detected | Decomposition efficiency of glycitin family in concentrated soybean protein (Crude diglycosidase; [6]): 35.4% | Decomposition efficiency of glycitin family in roasted soy flour (Crude diglycosidase; [6]): 37.5% | Decomposition efficiency of glycitin family in soymilk (Crude diglycosidase; [6]): not detected | Decomposition efficiency of glycitin family in defatted soybean (Crude diglycosidase; 45° C., heat treatment of enzyme no, reaction time 0 h): not detected | Decomposition efficiency of glycitin family in defatted soybean (Crude diglycosidase; 45° C., heat treatment of enzyme no, reaction time 1 h): not detected | Decomposition efficiency of glycitin family in defatted soybean (Crude diglycosidase; 45° C., heat treatment of enzyme no, reaction time 3 h): not detected | Decomposition efficiency of glycitin family in defatted soybean (Crude diglycosidase; 45° C., heat treatment of enzyme no, reaction time 6 h): not detected | Decomposition efficiency of glycitin family in defatted soybean (Crude diglycosidase; 45° C., heat treatment of enzyme yes, reaction time 6 h): not detected | Decomposition efficiency of glycitin family in concentrated soybean protein (Crude diglycosidase; [7]): 35.9% | Decomposition efficiency of glycitin family in roasted soy flour (Crude diglycosidase; [7]): 38.3% | Decomposition efficiency of glycitin family in soymilk (Crude diglycosidase; [7]): not detected | Decomposition efficiency of glycitin family in concentrated soybean protein (Crude diglycosidase; [8]): 34.1% | Decomposition efficiency of glycitin family in roasted soy flour (Crude diglycosidase; [8]): 27.4% | Decomposition efficiency of glycitin family in soymilk (Crude diglycosidase; [8]): not detected | Decomposition efficiency of glycitin family in concentrated soybean protein (Crude diglycosidase; [9]): 31.0% | Decomposition efficiency of glycitin family in roasted soy flour (Crude diglycosidase; [9]): 20.3% | Decomposition efficiency of glycitin family in soymilk (Crude diglycosidase; [9]): not detected | Decomposition efficiency of glycitin family in concentrated soybean protein (Crude diglycosidase; [10]): 27.1% | Decomposition efficiency of glycitin family in roasted soy flour (Crude diglycosidase; [10]): 9.1% | Decomposition efficiency of glycitin family in soymilk (Crude diglycosidase; [10]): not detected | Decomposition efficiency of glycitin family in concentrated soybean protein (Crude diglycosidase; [11]): 35.0% | Decomposition efficiency of glycitin family in roasted soy flour (Crude diglycosidase; [11]): 36.8% | Decomposition efficiency of glycitin family in soymilk (Crude diglycosidase; [11]): not detected | Decomposition efficiency of glycitin family in defatted soybean (Crude diglycosidase; 55° C., heat treatment of enzyme no, reaction time 0 h): not detected | Decomposition efficiency of glycitin family in defatted soybean (Crude diglycosidase; 55° C., heat treatment of enzyme no, reaction time 1 h): not detected | Decomposition efficiency of glycitin family in defatted soybean (Crude diglycosidase; 55° C., heat treatment of enzyme no, reaction time 3 h): not detected | Decomposition efficiency of glycitin family in defatted soybean (Crude diglycosidase; 55° C., heat treatment of enzyme no, reaction time 6 h): not detected | Decomposition efficiency of glycitin family in defatted soybean (Crude diglycosidase; 55° C., heat treatment of enzyme yes, reaction time 6 h): not detected | Decomposition efficiency of glycitin family in concentrated soybean protein (Crude diglycosidase; [12]): 36.0% | Decomposition efficiency of glycitin family in roasted soy flour (Crude diglycosidase; [12]): 39.1% | Decomposition efficiency of glycitin family in soymilk (Crude diglycosidase; [12]): not detected | Decomposition efficiency of glycitin family in concentrated soybean protein (Crude diglycosidase; [13]): 33.9% | Decomposition efficiency of glycitin family in roasted soy flour (Crude diglycosidase; [13]): 30.1% | Decomposition efficiency of glycitin family in soymilk (Crude diglycosidase; [13]): not detected | Decomposition efficiency of glycitin family in concentrated soybean protein (Crude diglycosidase; [14]): 29.8% | Decomposition efficiency of glycitin family in roasted soy flour (Crude diglycosidase; [14]): 12.1% | Decomposition efficiency of glycitin family in soymilk (Crude diglycosidase; [14]): not detected | Decomposition efficiency of glycitin family in concentrated soybean protein (Crude diglycosidase; [15]): 26.8% | Decomposition efficiency of glycitin family in roasted soy flour (Crude diglycosidase; [15]): 6.0% | Decomposition efficiency of glycitin family in soymilk (Crude diglycosidase; [15]): not detected | Decomposition efficiency of glycitin family in concentrated soybean protein (Crude diglycosidase; [16]): 35.3% | Decomposition efficiency of glycitin family in roasted soy flour (Crude diglycosidase; [16]): 37.3% | Decomposition efficiency of glycitin family in soymilk (Crude diglycosidase; [16]): not detected | Decomposition efficiency of glycitin family in defatted soybean (Crude diglycosidase; 65° C., heat treatment of enzyme no, reaction time 0 h): not detected | Decomposition efficiency of glycitin family in defatted soybean (Crude diglycosidase; 65° C., heat treatment of enzyme no, reaction time 1 h): not detected | Decomposition efficiency of glycitin family in defatted soybean (Crude diglycosidase; 65° C., heat treatment of enzyme no, reaction time 3 h): not detected | Decomposition efficiency of glycitin family in defatted soybean (Crude diglycosidase; 65° C., heat treatment of enzyme no, reaction time 6 h): not detected | Decomposition efficiency of glycitin family in defatted soybean (Crude diglycosidase; 65° C., heat treatment of enzyme yes, reaction time 6 h): not detected | Decomposition efficiency of glycitin family in concentrated soybean protein (Crude diglycosidase; [17]): 36.0% | Decomposition efficiency of glycitin family in roasted soy flour (Crude diglycosidase; [17]): 38.7% | Decomposition efficiency of glycitin family in soymilk (Crude diglycosidase; [17]): not detected | Decomposition efficiency of glycitin family in concentrated soybean protein (Crude diglycosidase; [18]): 35.7% | Decomposition efficiency of glycitin family in roasted soy flour (Crude diglycosidase; [18]): 34.5% | Decomposition efficiency of glycitin family in soymilk (Crude diglycosidase; [18]): not detected | Decomposition efficiency of glycitin family in concentrated soybean protein (Crude diglycosidase; [19]): 35.5% | Decomposition efficiency of glycitin family in roasted soy flour (Crude diglycosidase; [19]): 31.0% | Decomposition efficiency of glycitin family in soymilk (Crude diglycosidase; [19]): not detected | Decomposition efficiency of glycitin family in concentrated soybean protein (Crude diglycosidase; [20]): 35.8% | Decomposition efficiency of glycitin family in roasted soy flour (Crude diglycosidase; [20]): 29.0% | Decomposition efficiency of glycitin family in soymilk (Crude diglycosidase; [20]): not detected | Decomposition efficiency of glycitin family in concentrated soybean protein (Crude diglycosidase; [21]): 35.7% | Decomposition efficiency of glycitin family in roasted soy flour (Crude diglycosidase; [21]): 39.3% | Decomposition efficiency of glycitin family in soymilk (Crude diglycosidase; [21]): not detected | Decomposition efficiency of glycitin family in defatted soybean (Crude diglycosidase; 80° C., heat treatment of enzyme no, reaction time 0 h): not detected | Decomposition efficiency of glycitin family in defatted soybean (Crude diglycosidase; 80° C., heat treatment of enzyme no, reaction time 1 h): not detected | Decomposition efficiency of glycitin family in defatted soybean (Crude diglycosidase; 80° C., heat treatment of enzyme no, reaction time 3 h): not detected | Decomposition efficiency of glycitin family in defatted soybean (Crude diglycosidase; 80° C., heat treatment of enzyme no, reaction time 6 h): not detected | Decomposition efficiency of glycitin family in defatted soybean (Crude diglycosidase; 80° C., heat treatment of enzyme yes, reaction time 6 h): not detected | Decomposition efficiency of glycitin family in concentrated soybean protein (Crude diglycosidase; [22]): 35.9% | Decomposition efficiency of glycitin family in roasted soy flour (Crude diglycosidase; [22]): 38.3% | Decomposition efficiency of glycitin family in soymilk (Crude diglycosidase; [22]): not detected | Decomposition efficiency of glycitin family in concentrated soybean protein (Crude diglycosidase; [23]): 36.0% | Decomposition efficiency of glycitin family in roasted soy flour (Crude diglycosidase; [23]): 40.1% | Decomposition efficiency of glycitin family in soymilk (Crude diglycosidase; [23]): not detected | Decomposition efficiency of glycitin family in concentrated soybean protein (Crude diglycosidase; [24]): 35.7% | Decomposition efficiency of glycitin family in roasted soy flour (Crude diglycosidase; [24]): 38.4% | Decomposition efficiency of glycitin family in soymilk (Crude diglycosidase; [24]): not detected | Decomposition efficiency of glycitin family in concentrated soybean protein (Crude diglycosidase; [25]): 35.2% | Decomposition efficiency of glycitin family in roasted soy flour (Crude diglycosidase; [25]): 35.7% | Decomposition efficiency of glycitin family in soymilk (Crude diglycosidase; [25]): not detected | Decomposition efficiency of glycitin family in concentrated soybean protein (Crude diglycosidase; [26]): 34.8% | Decomposition efficiency of glycitin family in roasted soy flour (Crude diglycosidase; [26]): 39.4% | Decomposition efficiency of glycitin family in soymilk (Crude diglycosidase; [26]): not detected | aglycon ([1]; Reaction time 0 h): 0 | glucoside ([1]; Reaction time 0 h): 100 | aglycon ([1]; Reaction time 1 h): 98 | glucoside ([1]; Reaction time 1 h): 2 | aglycon ([1]; Reaction time 3 h): 97.9 | glucoside ([1]; Reaction time 3 h): 2.1 | aglycon ([1]; Reaction time 6 h): 97.5 | glucoside ([1]; Reaction time 6 h): 2.5
Compound: COc1cc2c(=O)c(-c3ccc(O)cc3)coc2cc1O[C@@H]1O[C@H](COC(C)=O)[C@@H](O)[C@H](O)[C@H]1O [acetylglycitin, 6″-O-acetylglycitin]
